The target of data set [1] is T1, Chk1 (Homo sapiens, UniProt O14757).
T1 construct: purchased BPS 40039
T1 sequence (O14757 1-476): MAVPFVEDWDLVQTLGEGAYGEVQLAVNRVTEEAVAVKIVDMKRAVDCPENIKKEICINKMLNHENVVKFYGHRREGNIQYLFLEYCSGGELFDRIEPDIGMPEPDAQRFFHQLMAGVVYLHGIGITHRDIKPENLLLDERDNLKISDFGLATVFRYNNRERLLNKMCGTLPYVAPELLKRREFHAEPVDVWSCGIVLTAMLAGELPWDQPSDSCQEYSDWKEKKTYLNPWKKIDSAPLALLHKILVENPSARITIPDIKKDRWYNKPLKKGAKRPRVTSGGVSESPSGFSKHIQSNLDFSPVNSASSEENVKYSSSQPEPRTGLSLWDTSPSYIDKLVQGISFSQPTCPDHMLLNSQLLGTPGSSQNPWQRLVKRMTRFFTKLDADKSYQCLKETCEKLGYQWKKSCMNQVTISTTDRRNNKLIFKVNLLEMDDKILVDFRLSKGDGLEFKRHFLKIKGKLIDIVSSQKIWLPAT
The data set can be described thus: biochemical. Conditions: ADP-Glo; read-out: Chk1 in vitro enzyme activity (grade).

The subject of data set [2] is HT-29. The data set can be described thus: Cancer cell growth inhibition assay (CellTiter-Glo), HT-29. The class given is cell-based, Human. As to conditions: Homo sapiens, HT-29; 72 hours, cellular ATP content; read-out: HT-29 anti cell proliferation activity (grade). As for the experimental part:
(§1) Human cancer cell lines were purchased from American Type Culture Collection (Manassas, Va.). The trypsinized cells were diluted to required volume at densities of 44,000 cells/ml. 90 ul cell slurry was dispensed per well in 96-well flat-bottomed plates with the recommended culture medium. The cells were incubated for 24 hours at 37° C. in 5% CO2 under humidified condition. The cells were then incubated with compounds at various concentrations for 72 hours in culture medium supplemented with 0.5% (v/v) FBS. Growth inhibition was assessed by assay of cellular ATP content using CellTiter-Glo reagent to each well. Luminesce was read on Envision. The inhibition rate (%)=(Max signal compound signal)/(Max signal Min signal)×100.
In general terms: In ATP-based viability assays light output follows the ATP content of the culture.

The subject of data set [3] is MDA-MB-231. The data set can be described thus: Cancer cell growth inhibition assay (CellTiter-Glo), MDA-MB-231. In kind it is cell-based, Human. Conditions: Homo sapiens, MDA-MB-231; 72 hours, cellular ATP content; read-out: MDA-MB-231 anti cell proliferation activity (grade). As for the experimental part:
as §1

In patent US11116767B2, “3,5-disubstituted pyrazoles useful as checkpoint kinase 1 (Chk1) inhibitors, and their preparations and applications” (PHARMAENGINE, INC., priority 2016, dated 2021) one finds IC50 and melting point data, which are given here for 6 compounds.

One may read the melting point as the temperature, or range, at which the solid turns liquid.

`COc1ccc(F)c(OCCCN)c1-c1cc(Nc2cnc(C#N)cn2)n[nH]1` [Compound 1, 5-(5-(2-(3-Aminopropoxy)-3-fluoro-6-methoxyphenyl)-1H-pyrazol-3-ylamino)pyrazine-2-carbonitrile]: the melting point lay within 221 to 224 °C. Further, the IC50 in data set [1] was 1 to 10 nM. In addition, the IC50 in data set [2] was in the range of 100 to 500 nM. Further, the IC50 in data set [3] fell in the range of 100 to 500 nM.
As for `CNCC1(COc2c(F)ccc(OC)c2-c2cc(Nc3cnc(C#N)cn3)n[nH]2)CC1` [Compound 18, 5-(5-(3-fluoro-6-methoxy-2-((1-((methylamino)methyl)cyclopropyl)methoxy)phenyl)-1H-pyrazol-3-ylamino)pyrazine-2-carbonitrile], the melting point was 213 to 215 °C. The IC50 in data set [1] is 1 to 10 nM.
In the case of `CNCC1(COc2ccc(F)c(OC)c2-c2cc(Nc3cnc(C#N)cn3)n[nH]2)CC1` [Compound 19, 5-((5-(3-fluoro-2-methoxy-6-((1-((methylamino)methyl)cyclopropyl)methoxy)phenyl)-1H-pyrazol-3-yl)amino)pyrazine-2-carbonitrile], the melting point lay within 215 to 219 °C. In data set [1], the IC50 was in the range of 1 to 10 nM. For the same compound, the IC50 in data set [2] lay in the range of 50 to 100 nM. Moreover, the IC50 in data set [3] lay in the range of 100 to 500 nM.
`CCOC(=O)NCCCOc1cc(F)cc(OC)c1-c1cc(Nc2cnc(C#N)cn2)n[nH]1` [Compound 38, Ethyl 3-(2-(3-(5-cyanopyrazin-2-ylamino)-1H-pyrazol-5-yl)-5-fluoro-3-methoxyphenoxy)propylcarbamate]: in data set [1], the IC50 lay within 10 to 50 nM.
In turn, `CNCC1(COc2cc(F)cc(OC)c2-c2cc(Nc3cnc(C#N)cn3)n[nH]2)CC1` [Compound 20, 5-(5-(4-Fluoro-2-methoxy-6-((1-((methylamino)methyl)cyclopropyl)methoxy)phenyl)-1H-pyrazol-3-ylamino)pyrazine-2-carbonitrile] showed a melting point of 228 to 230 °C. The IC50 in data set [1] was at most 1 nM. Further, the IC50 in data set [2] was at most 10 nM. The IC50 in data set [3] was 10 to 50 nM.
Take `COc1c(F)ccc(OCCCN)c1-c1cc(Nc2cnc(C#N)cn2)n[nH]1` [Compound 2, 5-((5-(6-(3-aminopropoxy)-3-fluoro-2-methoxyphenyl)-1H-pyrazol-3-yl)amino)pyrazine-2-carbonitrile]: the melting point was in the range of 80 to 84 °C. In data set [1], the IC50 was at most 1 nM. In addition, the IC50 in data set [2] is 100 to 500 nM. Besides, the IC50 in data set [3] was 100 to 500 nM.
